In patent publication US8765775B2, “Anti-angiogenic compounds” (Universitaet Zuerich, priority 2008, dated 2014):
pIC50, pKi: −log10 of the molar value. “And” between values parts separate entries of the source, which are not always exact repeats. Equal entries are not always repeated.

Columns and labels:
EphB4 [1] = target: T1, EphB4 (Homo sapiens, UniProt P54760); assay: IC50 and % inhibition (Table 3); assay type: biochemical; conditions: for pIC50: repeated determinations
T1 sequence (P54760 16-987): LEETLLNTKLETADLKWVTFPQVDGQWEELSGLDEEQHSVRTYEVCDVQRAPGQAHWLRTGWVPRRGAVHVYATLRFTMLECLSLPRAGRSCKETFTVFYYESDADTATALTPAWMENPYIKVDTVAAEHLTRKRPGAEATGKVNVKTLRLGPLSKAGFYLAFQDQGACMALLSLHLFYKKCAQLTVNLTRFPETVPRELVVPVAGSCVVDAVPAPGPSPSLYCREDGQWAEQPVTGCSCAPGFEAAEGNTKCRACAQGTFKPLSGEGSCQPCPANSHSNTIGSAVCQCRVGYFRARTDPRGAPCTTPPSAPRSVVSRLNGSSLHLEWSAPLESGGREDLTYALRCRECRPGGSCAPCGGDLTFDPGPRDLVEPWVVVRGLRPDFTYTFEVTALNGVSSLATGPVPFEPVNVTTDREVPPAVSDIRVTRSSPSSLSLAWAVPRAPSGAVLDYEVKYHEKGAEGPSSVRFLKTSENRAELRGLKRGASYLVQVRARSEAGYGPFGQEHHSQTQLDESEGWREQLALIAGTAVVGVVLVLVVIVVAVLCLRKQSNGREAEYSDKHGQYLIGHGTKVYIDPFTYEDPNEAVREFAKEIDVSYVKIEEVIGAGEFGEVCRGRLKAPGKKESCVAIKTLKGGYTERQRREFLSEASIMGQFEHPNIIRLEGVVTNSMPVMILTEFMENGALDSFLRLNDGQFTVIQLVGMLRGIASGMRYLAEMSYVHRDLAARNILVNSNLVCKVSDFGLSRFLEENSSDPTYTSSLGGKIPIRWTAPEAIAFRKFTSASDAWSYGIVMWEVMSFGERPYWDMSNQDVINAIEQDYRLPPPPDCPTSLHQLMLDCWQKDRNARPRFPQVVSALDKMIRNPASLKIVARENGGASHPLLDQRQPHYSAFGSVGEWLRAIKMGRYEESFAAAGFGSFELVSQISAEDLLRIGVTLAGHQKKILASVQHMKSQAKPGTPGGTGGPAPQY

[2] = target: T2, myc-tagged full-length human EphB4 (Homo sapiens, UniProt P54760); assay: Phospho-EphB4 ELISA of CHO cells (EphB4 autophosphorylation); assay type: cell-based
T2 construct: stably transfected with myc-tagged full-length human EphB4; expressed in transfected cells; host or cells: CHO-FRT cells (Flip-In System, Invitrogen)
T2 sequence (P54760 16-987): T1 sequence (P54760 16-987)
Method: Phospho-EphB4 ELISA of CHO cells. The ELISA assay was performed as follows: Chinese hamster ovary (CHO)-FRT cells are stably transfected with myc-tagged full-length human EphB4 according to the Flip-In System protocol (Invitrogen, USA). […] Cells of this clone are preincubated with EphB4 inhibitors for 15 minutes and then stimulated with preclustered ephrinB2-Fc for 45 minutes at 37° C. Cells are lysed, transferred to a 96-well plate coated with anti-myc antibody and incubated overnight at 4° C. After incubation with anti-phosphotyrosine antibody, reactions are developed with BM Blue peroxydase substrate, and autophosphorylation of EphB4 is quantified by measuring absorption at 450 nm.

EphB4 [3] = target: T1, EphB4; assay: Omnia kinetic assay (Omnia Tyr Recombinant Kit KNZ4051); assay type: biochemical; set-up: purchased Proqinase, Germany
Method: The data obtained in these experiments are shown in a specific velocity plot (FIG. 2), where the ratio of the initial velocities for the non-inhibited and inhibited reactions at a given ATP concentration (v0/vi in FIG. 2) is plotted versus σ/(1+σ), with σ=[ATP]/Km. […] Kinetic assay. […] Fluorescence progress curves are measured upon excitation at 360 nm and emission at 485 nm. […] Biosource Omnia. […] The assay is run at 30° C. for 1 hour.

EphB4 [4] = target: T1, EphB4; assay: Cerep FRET-based enzymatic assay; assay type: biochemical; conditions: ATP 0.75 μM, read-out: Enzymatic assays IC50 Cerep
From the text: Similar values of IC50 compared to the original FRET-based enzymatic assay (Z'Lyte) are obtained (Table 2).

EphB4 [5] = target: T1, EphB4; assay: Panvera Z'Lyte FRET-based enzymatic assay
Method: In vitro kinase activity was measured using the Panvera Z'Lyte Tyr2 kinase assay PV3191 (Invitrogen, USA), according to the manufacturer's instructions. […] The reaction is performed at room temperature for 1 hour.

`Cn1c(=O)[nH]c(=O)c2c1nc1n(CCCCO)c(-c3ccccc3)cn21` [Compound 2] was tested, and the “% inhibition at indicated concentration C” value (EphB4 [1]; C = 10 μM, 10 µM) was 67% and 68% and 59% and 64%, the inhibition at 10 µM (EphB4 [1]; C = 10 μM, read-out: % inhibition at indicated concentration C) was 72% and the pIC50 (EphB4 [1]; IC50, Table 3) was 5.17. For the same compound, the pIC50 (EphB4 [1]; Table 3, read-out: IC50) was 5.10 and 5.15, the “Inhibitory effects on EphB4 autophosphorylation in CHO cells (in words)” value ([2]; 20 μM) was “only mild inhibitory effects” and the “Cell-based assay percent inhibition” value ([2]; in CHO cells, at 20 μM) was “neg”. For the same compound, the “Sensitivity of inhibition to detergent (in words)” value (EphB4 [3]; 0.01% Triton X-100) was “detergent-insensitive inhibition”, the “Mode of inhibition versus ATP (specific velocity plot)” value (EphB4 [3]; ATP 31.25 to 500 μM, Km 158 μM) was “ATP competitive” and the pKi (EphB4 [3]; two experiments, with and without 0.01% Triton X-100, read-out: Ki corresponding to Omnia IC50) was 5.57 and 5.54. The pIC50 (EphB4 [3]; two experiments, without and with 0.01% Triton X-100, ATP 125 μM, 30° C. 1 hour, read-out: Enzymatic assays IC50 Omnia) was 5.25 and 5.10, the pIC50 (EphB4 [4]) was 5.17 and the pIC50 (EphB4 [5]) was roughly 5.80. The pIC50 (EphB4 [5]; Enzymatic assays IC50 Z′Lyte, FRET-based, 10 μM ATP, 1% DMSO, room temperature 1 hour) was 5.85 and 5.74.
